Source: patent US12479821B2 (MBD CO., LTD., priority 2019, dated 2025)

Target: T1, CYP4A (Homo sapiens, UniProt Q02928)
T1 construct: host or cells: bactosome, i.e. bacterial membrane preparation (own knowledge of the term)
T1 sequence (Q02928 5-519): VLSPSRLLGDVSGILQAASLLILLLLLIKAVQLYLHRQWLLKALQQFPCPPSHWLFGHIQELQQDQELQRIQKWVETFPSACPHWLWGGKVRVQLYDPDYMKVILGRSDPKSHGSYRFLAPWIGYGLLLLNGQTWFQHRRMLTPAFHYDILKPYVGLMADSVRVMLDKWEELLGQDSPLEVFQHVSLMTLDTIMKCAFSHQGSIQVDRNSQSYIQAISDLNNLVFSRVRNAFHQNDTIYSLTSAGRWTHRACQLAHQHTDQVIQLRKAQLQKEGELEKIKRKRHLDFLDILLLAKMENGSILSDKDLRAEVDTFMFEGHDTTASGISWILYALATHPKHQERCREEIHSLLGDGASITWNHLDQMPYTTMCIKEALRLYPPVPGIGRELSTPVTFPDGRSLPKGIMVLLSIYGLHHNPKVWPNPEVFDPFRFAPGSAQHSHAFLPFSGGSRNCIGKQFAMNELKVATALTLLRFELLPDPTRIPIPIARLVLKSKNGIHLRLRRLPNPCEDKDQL
Test: CYP4A enzyme assay (Luciferin-ME luminescence, CYP4A bactosome)
Format: biochemical
Details: compound concentration 5 μM; 25%-50%; read-out: % Inhibition 25%-50%
Description: A commercially available reagent was used for the reagent used in the experiment, and it was manufactured and used if necessary. The device used for activity measurement was EnVision of PerkinElmer or SpectraMax of MOLECULAR DEVICES.
First, CYP4A bactosome and synthetic compound (5 μM) were mixed in assay buffer (100 mM KPO4, 0.1% BSA, 1 mM DTT) in a 384-well plate (white opaque ploystyrene nontreated flat-bottom well), and then reacted at room temperature for 15 minutes. After adding 5 mM Luciferin-ME and NADPH Regeneration system (10× sol.A, 20× sol.B in assay buffer, Cat. Number: V865B, Promega), leave it at room temperature for 30 minutes to allow the CYP4A reaction to occur sufficiently, by adding the Luciferin Detection reagent, the CYP4A reaction was finished, luminescence reaction was induced, and the reaction was carried out at room temperature for 15 minutes. The degree of inhibition of CYP4A activity was measured by comparing the luminescence values from each well with a microplate reader.

inhibition at 5 µM	Compound
0%	COc1ccc2c(N3CCN(C(=O)C4CCCN(S(=O)(=O)c5ccc(C)cc5)C4)CC3)ccnc2c1 (stereo not shown) [Formula 88, (4-(7-methoxyquinolin-4-yl)piperazin-1-yl) (1-tosylpiperidin-3-yl) methanone]
25 to 50%	Cc1cc(N2CCN(C(=O)C3CCCN(S(=O)(=O)c4ccccc4F)C3)CC2)c2ccccc2n1 (stereo not shown) [Formula 33, (1-(2-fluorophenylsulfonyl)piperidin-3-yl) (4-(2-methylquinolin-4-yl)piperazin-1-yl) methanone]
25 to 50%	COC(=O)c1ccc(S(=O)(=O)N2CCCC(C(=O)N3CCN(c4cc(C)nc5ccccc45)CC3)C2)cc1 (stereo not shown) [Formula 37, methyl 4-(3-(1-(2-methylquinolin-4-yl)piperazine-4-carbonyl)piperidin-1-ylsulfonyl)benzoate]
25 to 50%	Cc1cc(N2CCN(C(=O)C3CCCN(S(=O)(=O)c4ccc(Oc5ccccc5)cc4)C3)CC2)c2ccccc2n1 (stereo not shown) [Formula 34, (4-(2-methylquinolin-4-yl)piperazin-1-yl) (1-(4-phenoxyphenylsulfonyl)piperidin-3-yl) methanone]
25 to 50%	Cc1cccc(S(=O)(=O)N2CCCC(C(=O)N3CCN(c4cc(C)nc5ccccc45)CC3)C2)c1 (stereo not shown) [Formula 21, (4-(2-methylquinolin-4-yl)piperazin-1-yl) (1-(m-tolylsulfonyl)piperidin-3-yl) methanone]
25 to 50%	Cc1cc(N2CCN(C(=O)C3CCCN(S(=O)(=O)c4ccc(C(=O)N(C)C)cc4)C3)CC2)c2ccccc2n1 (stereo not shown) [Formula 101, N,N-dimethyl-4-(3-(1-(2-methylquinolin-4-yl)piperazine-4-carbonyl)piperidin-1-ylsulfonyl)benzamide]

Same assay, conditions: compound concentration 5 μM; 75% or more; read-out: % Inhibition 75% or more

inhibition at 5 µM	Compound
≥ 75%	O=C(C1CCCN(S(=O)(=O)c2ccc(-c3ccccc3)cc2)C1)N1CCN(c2ccnc3ccccc23)CC1 (stereo not shown) [Formula 84, (4-(quinolin-4-yl)piperazin-1-yl) (1-(4-phenylbenzenesulfonyl)piperidin-3-yl) methanone]
≥ 75%	O=C(C1CCCN(S(=O)(=O)c2cccc(O)c2)C1)N1CCN(c2ccnc3ccccc23)CC1 (stereo not shown) [Formula 95, (1-(3-hydroxyphenylsulfonyl)piperidin-3-yl) (4-(quinolin-4-yl)piperazin-1-yl) methanone]
≥ 75%	O=C(C1CCCN(S(=O)(=O)c2cccc([N+](=O)[O-])c2)C1)N1CCN(c2ccnc3ccccc23)CC1 (stereo not shown) [Formula 82, (1-(3-nitrophenylsulfonyl)piperidin-3-yl) (4-(quinolin-4-yl)piperazin-1-yl) methanone]
≥ 75%	CCN(CC)c1ccc(S(=O)(=O)N2CCCC(C(=O)N3CCN(c4ccnc5ccccc45)CC3)C2)cc1 (stereo not shown) [Formula 83, (1-(4-(diethylamino)phenylsulfonyl)piperidin-3-yl) (4-(quinolin-4-yl)piperazin-1-yl)methanone]
≥ 75%	CN(C)c1ccc(S(=O)(=O)N2CCCC(C(=O)N3CCN(c4ccnc5ccccc45)CC3)C2)cc1 (stereo not shown) [Formula 77, (1-(4-(dimethylamino)phenylsulfonyl)piperidin-3-yl) (4-(quinolin-4-yl)piperazin-1-yl) methanone]
≥ 75%	CN(C)c1ccc(S(=O)(=O)N2CCC[C@H](C(=O)N3CCN(c4ccnc5ccccc45)CC3)C2)cc1 [Formula 80, (S)-(1-(4-(dimethylamino)phenylsulfonyl)piperidin-3-yl) (4-(quinolin-4-yl)piperazin-1-yl)methanone]
≥ 75%	CCN(CC)c1ccc(S(=O)(=O)N2CCCC(C(=O)N3CCN(c4ccnc5cc(F)ccc45)CC3)C2)cc1 (stereo not shown) [Formula 52, (1-(4-(diethylamino)phenylsulfonyl)piperidin-3-yl) (4-(7-fluoroquinolin-4-yl)piperazin-1-yl) methanone]
≥ 75%	Cc1cc(N2CCN(C(=O)C3CCCN(S(=O)(=O)c4ccc(N(C)C)cc4)C3)CC2)c2ccccc2n1 (stereo not shown) [Formula 31, (1-(4-(dimethylamino)phenylsulfonyl)piperidin-3-yl) (4-(2-methylquinolin-4-yl)piperazin-1-yl) methanone]
≥ 75%	CC(=O)Nc1ccc(S(=O)(=O)N2CCC[C@@H](C(=O)N3CCN(c4ccnc5cc(F)ccc45)CC3)C2)cc1 [Formula 46, (R)—N-(4-(3-(1-(7-fluoroquinolin-4-yl)piperazine-4-carbonyl)piperidin-1-ylsulfonyl)phenyl) acetamide]
0%	Cc1cc(N2CCN(C(=O)C3CCCN(S(=O)(=O)c4ccc(-c5ccncc5)cc4)C3)CC2)c2ccccc2n1 (stereo not shown) [Formula 102, (4-(2-methylquinolin-4-yl)piperazin-1-yl) (1-((4-(pyridin-4-yl)phenyl)sulfonyl)piperidin-3-yl)methanone]
≥ 75%	CC(=O)Nc1cccc(S(=O)(=O)N2CCC[C@@H](C(=O)N3CCN(c4ccnc5cc(F)ccc45)CC3)C2)c1 [Formula 59, (R)—N-(3-(3-(1-(7-fluoroquinolin-4-yl)piperazine-4-carbonyl)piperidin-1-ylsulfonyl)phenyl) acetamide]
≥ 75%	CC(=O)Nc1ccc(S(=O)(=O)N2CCC[C@@H](C(=O)N3CCN(c4cc(C)nc5ccccc45)CC3)C2)cc1 [Formula 16, (R)—N-(4-((3-(4-(2-methylquinolin-4-yl)piperazine-1-carbonyl)piperidin-1-yl)sulfonyl)phenyl) acetamide]

Same assay, conditions: compound concentration 5 μM; '50%-75%'; read-out: % Inhibition 50%-75%

inhibition at 5 µM	Compound
50 to 75%	CC(=O)Nc1ccc(S(=O)(=O)N2CCC[C@H](C(=O)N3CCN(c4cc(C)nc5ccccc45)CC3)C2)cc1 [Formula 17, (S)—N-(4-((3-(4-(2-methylquinolin-4-yl)piperazine-1-carbonyl)piperidin-1-yl)sulfonyl)phenyl) acetamide]
50 to 75%	Cc1cc(N2CCN(C(=O)C3CCCN(S(=O)(=O)c4cccc(F)c4)C3)CC2)c2ccccc2n1 (stereo not shown) [Formula 27, (1-(3-fluorophenylsulfonyl)piperidin-3-yl) (4-(2-methylquinolin-4-yl)piperazin-1-yl) methanone]
50 to 75%	O=C(C1CCCN(S(=O)(=O)c2ccccc2)C1)N1CCN(c2ccnc3cc(F)ccc23)CC1 (stereo not shown) [Formula 41, (4-(7-fluoroquinolin-4-yl)piperazin-1-yl) (1-(phenylsulfonyl)piperidin-3-yl) methanone]
50 to 75%	O=C(C1CCCN(S(=O)(=O)c2ccc(Oc3ccccc3)cc2)C1)N1CCN(c2ccnc3cc(Cl)ccc23)CC1 (stereo not shown) [Formula 9, (4-(7-chloroquinolin-4-yl)piperazin-1-yl) (1-((4-phenoxyphenyl)sulfonyl)piperidin-3-yl) methanone]
50 to 75%	COc1ccc2c(N3CCN(C(=O)C4CCCN(S(=O)(=O)c5ccc(F)cc5)C4)CC3)ccnc2c1 (stereo not shown) [Formula 89, (1-(4-fluorophenylsulfonyl)piperidin-3-yl) (4-(7-methoxyquinolin-4-yl)piperazin-1-yl) methanone]
50 to 75%	Cc1cc(N2CCN(C(=O)C3CCCN(S(=O)(=O)c4ccc(F)cc4)C3)CC2)c2ccccc2n1 (stereo not shown) [Formula 24, (1-((4-fluorophenyl)sulfonyl)piperidin-3-yl) (4-(2-methylquinolin-4-yl)piperazin-1-yl) methanone]
50 to 75%	Cc1cc(N2CCN(C(=O)C3CCCN(S(=O)(=O)c4ccc(S(C)(=O)=O)cc4)C3)CC2)c2ccccc2n1 (stereo not shown) [Formula 36, (4-(2-methylquinolin-4-yl)piperazin-1-yl) (1-(4-(methylsulfonyl)phenylsulfonyl)piperidin-3-yl) methanone]
